Test results: patent US11564975B2, “Use of GHRP-6 as late cardioprotective and cardiac restoration medicament” (Centro de Ingeniería Genética y Biotecnología, priority 2018, dated 2023)
Several values for one entry are separate records, joined by “and”; a condition that tells them apart may be missing. Identical values can stand only once. Entries after “also recorded” stand apart in the source; their conditions may differ.

Experiments:
[1] = tested on: AMI with a ST Segment elevation; assay: AMI in pigs, one hour circumflex artery clamping followed by reperfusion; format: in vivo, female pigs of the Yorkshire breed; conditions: for Infarction Area (%): day 10
Description: (§1) The objective of the study was to evaluate, and to compare, the therapeutic impact of the late administration of GHRP-6 on functional parameters of the left ventricle, regarding the effect of the peptide acutely administered. Another objective was to assess the effect of late treatment in a group of animals in which the reperfusion was not performed.
(§2) The implementation of the AMI was performed in female pigs of the Yorkshire breed, with body weight of 22-27 kg. The anesthesia was induced with propofol, midazolam and pancuronium, by intravenous route. Under general anesthesia, obtained with a mixture of isofluorane/oxygen and nitrous oxide the ischemia was provoked. It was induced by a thoracotomy between the fifth and sixth intercostal spaces, until reaching the left circumflex artery, which was occluded by a 30 mm arterial clamping for one hour. Immediately, the record of the electrocardiogram and the heart rate was taken, every 20 seconds. At the end of 60 minutes of occlusion, the clamping was released, and so began the reperfusion phase, to complete the 10 days after ischemia. For the experimental group without reperfusion, that simulates the state called as non-reflux, a permanent ligation of the circumflex artery, with surgical thread, was performed. Both procedures, clamping and permanent ligation, induce an AMI with a ST Segment elevation. The recording of heart rate and electrocardiogram continued until the superficial suture of the thorax. The animals were sacrificed, by exsanguination, on the tenth day after the ischemia episode was induced. Under an anesthetic overdose, the determination of the area of the AMI was made, by means of the calculation of the area at risk with Evans blue.
(§3) For the echocardiographic evaluation, the pigs were previously sedated with a mixture of propofol/midazolam. A Kontron ultrasound system, Sigma 1 AC Cardio model, equipped with 3.5-7.5 MHz mechanical-cardiac sector transducers was used.
(§4) The parameters evaluated were the following: • Left Ventricle Ejection Fraction (LVEF), estimated by the Teich method. • Left Ventricle Tele-Systolic and Tele-diastolic Pressures. • Infarction Area, estimated on the area at risk (%).
(§5) Seven animals per group were used. In all groups, the animals received treatment every 12 hours, for 10 days after ischemia. The administrations of GHRP-6 or placebo were performed through a central catheter. In the case of the groups that received the peptide, it was diluted in 10 ml of physiological saline. The essence of the study was to evaluate the influence of the time of initiation of treatment on functional parameters and size of the ventricular not viable territory.

[2] = tested on: AMI with a ST Segment elevation; assay: AMI in pigs without reperfusion (non-reflux), permanent ligation of the circumflex artery; format: in vivo, female pigs of the Yorkshire breed
Description: as §1, §2, §3, §4, §5

[3] = tested on: AMI with ST segment elevation; assay: First cohort: patients with AMI with ST segment elevation, GHRP-6 immediately after angioplasty; format: in vivo, human
Description: First cohort. Comprising 19 patients over 30 years old, of both sexes, with a diagnosis of AMI with ST segment elevation, all with occlusion of the anterior descending artery, first episode, who arrived at a cardiology department before 12 hours of implantation of the precordial pain. The average door-ball time was 6 hours. All patients received primary percutaneous transluminal angioplasty, and immediately after the culprit artery flow was restored they received treatment with GHRP-6. In some patients, the treatment was performed by intra-coronary flushing, after the flow was restored. Residual lesions occupied less than 25% of the initial occlusion area, so it was considered as a TIMI 3, according to the Coronary Risk Score known as TIMI. In other cases, the first administration was performed by a central-venous route, just at the time of reperfusion, in the hemodynamic room. GHRP-6 was administered at a dose of 100 μg/kg of body weight, twice a day, for 7 days, time spent in the coronary intensive care hospital room. […]

[4] = tested on: AMI with elevated ST segment; assay: Second cohort: AMI patients with low cardiac output syndrome / cardiogenic shock, late treatment with GHRP-6; format: in vivo, human; conditions: for LVEF: individual patients, late treatment, echocardiography at 90 days
Description: Second cohort. Comprising 13 patients over 30 years old, of both sexes, with a diagnosis of AMI with elevated ST segment, who received percutaneous transluminal angioplasty before 12 hours of implantation of precordial pain. All these patients evolved in an unfavorable way, and with uncertain prognosis between 24 and 96 hours after a successful endoluminal reperfusion, according to the imaging criteria all were considered as TIMI grade 3.
This led to the decision of establishing an alternative treatment with GHRP-6, to try to reduce dyskinesia of the ventricular musculature, to attenuate the process of presumed stunning, to dampen hypoxia, and to rescue from death a territory of ischemic ventricular mass. The patients who implanted a reinfarction received rescue angioplasty. One of these patients died during the procedure. None of the patients met criteria for the coronary revascularization practice. In these cases, the first administration of the peptide was carried out at least after 48 hours of torpid evolution after a TIMI 3. During the treatment time, the GHRP-6 was administered intravenously, every 12 hours.

Grade IV heart failure = assay: Compassionate treatment of patients with Grade IV heart failure awaiting heart transplantation; format: in vivo, human; conditions: for Cardiac output (L/m) / LVEF % / Oxygen consumption / Systolic volume: individual patients
Text: This is a cohort of 7 patients, who received the compassionate treatment with GHRP-6, under informed consent. All patients were in advanced heart failure, evaluated as functional class grade IV, according to the scale of the New York Heart Association. These patients were hospitalized in specialized cardiology services of two hospitals, and the ischemic heart disease, the idiopathic dilated cardiomyopathy, the heart valve disease, and the postpartum dilated cardiomyopathy were considered as the underlying condition for heart failure. […] They had minimal effort dyspnea, inability to adequately fulfill the 6 minutes' walk test, and instability in fluid balance and renal function, despite the diet control and the treatment with diuretics, the restriction of salt and the monitoring body weight.
All patients received between 50 and 200 μg of GHRP-6/kg body weight, two or three times a day, according to medical criteria, by intravenous route. All treatments were performed while the patients were awaiting for heart transplantation. The treatment period with GHRP-6 was between 25 days and 30 days per cycle.
A cycle of treatment with GHRP-6 was performed every three months. The maximum was three cycles. All patients were maintained with previous medical treatments, based on digital, diuretics, renin-angiotensin-aldosterone axis inhibitors (neurohormones) and pressor amines when required.

[5] = Group 2: 400 μg/kg every 12 h for 10 days, onset immediately at the beginning of reperfusion
[6] = Group 3: 400 μg/kg every 12 h, onset 72 hours after the start of reperfusion
[7] = Group 4: 400 μg/kg every 12 h, onset 5 days after the start of reperfusion
[8] = Group 5: no reperfusion, 400 μg/kg every 12 h, onset one hour after the artery was permanently clamped
[9] = 30 days after PTA, 100 μg/kg twice a day for 7 days
[10] = 90 days after PTA, 100 μg/kg twice a day for 7 days
[11] = start of treatment, minutes after the PTA (baseline)
[12] = after treatment, 50-200 μg/kg two or three times a day intravenously

growth hormone releasing peptide-6 [GHRP-6]
LV telediastolic pressure (mmHg) [1, 5]: 4.6 ± 1.1 mmHg
LV telesystolic pressure (mmHg) [1, 5]: 80 ± 2.2 mmHg
LVEF % [1, 5]: 80 ± 2.5%
Infarction Area (%) [1, 5]: 31.6 ± 5.2%
LV telediastolic pressure (mmHg) [1, 6]: 4.4 ± 1.6 mmHg
LV telesystolic pressure (mmHg) [1, 6]: 81 ± 3.0 mmHg
LVEF % [1, 6]: 77 ± 4.1%
Infarction Area (%) [1, 6]: 35.4 ± 6.4%
LV telediastolic pressure (mmHg) [1, 7]: 5.2 ± 0.8 mmHg
LV telesystolic pressure (mmHg) [1, 7]: 77 ± 3.1 mmHg
LVEF % [1, 7]: 60 ± 6.6%
Infarction Area (%) [1, 7]: 37.0 ± 4.3%
diastolic pressure compared to the placebo group ([1]; all groups that received GHRP-6, regardless of when treatment started): significant reduction
LVEF rescued ([1]; medicated from 5 days after the ischemic event, versus placebo): 22%
decline of LVEF compared to baseline physiological conditions ([1]; start of treatment on the fifth day): 21%
infarct size effect: treatment in parallel to reperfusion versus started 72 hours later ([1]; statistical comparison of Groups 2 and 3): no significant statistically differences
ventricular territory (area at risk) rescued from death ([1]; treatment initiated on the 5th day after ischemia): 8%
reduction of the size of myocardial infarction in comparison to placebo ([1]; treatment started 72 hours after reperfusion): ~13%
LV telediastolic pressure (mmHg) [2, 8]: 5.1 ± 1.9 mmHg
LV telesystolic pressure (mmHg) [2, 8]: 80 ± 2.6 mmHg
LVEF % [2, 8]: 72 ± 5.5%
Infarction Area (%) ([2]; Group 5: no reperfusion, 400 μg/kg every 12 h, onset one hour after the artery was permanently clamped, day 10): 36.1 ± 2.8%
reduction of the area of ventricular death ([2]; no reperfusion): 12%
LVEF difference with baseline conditions ([2]; non-reflux group, without reperfusion): 9%
LVEF % [3, 9]: 51 ± 8.6%
SPWT (mm) [3, 9]: 11.6 ± 0.7 mm
SSF % [3, 9]: 35 ± 6.5%
SST (mm) [3, 9]: 10.3 ± 1.6 mm
Telediastolic volumen [3, 9]: 87 ± 11 mL
Telesystolic volume [3, 9]: 65 ± 23 mL
LVEF % [3, 10]: 57 ± 6.6%
SPWT (mm) [3, 10]: 11.3 ± 1.8 mm
SSF % [3, 10]: 42 ± 9.6%
SST (mm) [3, 10]: 10.7 ± 1 mm
Telediastolic volumen [3, 10]: 111 ± 16 mL
Telesystolic volume [3, 10]: 49 ± 8 mL
LVEF %. Mean ± SD ([3]; Cohort 1, acute treatment, 90 days after treatment): 57.0 ± 6.61%
clinical evolution of the patients ([3]; first cohort, GHRP-6 after successful angioplasty (TIMI 3)): favorable evolution, without further important complications; also recorded: progressive improvement over time
LVEF % [3, 11]: 38 ± 5.9%
SSF % [3, 11]: 27 ± 2.6%
Telediastolic volumen [3, 11]: 81 ± 14 mL
Telesystolic volume [3, 11]: 77 ± 12 mL
SPWT (mm) ([3]; start of treatment, minutes after the PTA (baseline), echocardiography): 10.1 ± 2 mm
LVEF %. Mean ± SD ([4]; Cohort 2, late treatment, 90 days after treatment): 50.8 ± 5.34%
interval to suspension of vasopressor amines ([4]; after start of peptide treatment): ~96 h
LVEF ([4]; 100 μg/kg every 12 hours): LVEF of 63%; also recorded: LVEF of 48%; also recorded: LVEF of 50%; also recorded: LVEF of 52%; also recorded: LVEF of 56%; also recorded: LVEF of 45%
LVEF ([4]; 200 μg/kg every 12 hours): LVEF of 47%; also recorded: LVEF of 51%; also recorded: LVEF of 46%
patients in whom suspension of vasopressor amines was achieved ([4]; patients evaluated, after start of peptide treatment): 8 out of 10
surviving patients of the 13 critical patients ([4]; second cohort): 12
overall response to treatment (Grade IV heart failure; Grade IV heart failure patients in the transplant pool): restore cardiac, hemodynamic, ventilatory and clinical constants
Cardiac output (L/m) (Grade IV heart failure; [12]): 4.3 L/m and 3.8 L/m and 2.9 L/m and 3.2 L/m (2×) and 3.08 L/m and 2.89 L/m
LVEF % (Grade IV heart failure; [12]): 28% and 30% and 29% and 23% and 25% and 31% and 26%
Oxygen consumption (Grade IV heart failure; [12]): 7.7 mL/min/kg and 7 mL/min/kg and 6.4 mL/min/kg and 7.2 mL/min/kg and 7.6 mL/min/kg and 6.6 mL/min/kg and 9.5 mL/min/kg
Systolic volume (Grade IV heart failure; after treatment, 50-200 μg/kg two or three times a day intravenously, in mL (unit assumed)): 50 and 54 and 60 and 56 and 49 and 47 and 51
Cardiac output (L/m) (Grade IV heart failure; before treatment): 3.2 L/m and 2.7 L/m and 1.89 L/m and 2.17 L/m and 2.41 L/m and 2.1 L/m and 1.98 L/m
LVEF % (Grade IV heart failure; before treatment): 20% (2×) and 19% and 21% (2×) and 22% and 18%
Oxygen consumption (Grade IV heart failure; before treatment): 4.12 mL/min/kg and 3.91 mL/min/kg and 3.05 mL/min/kg and 4.1 mL/min/kg and 3.87 mL/min/kg and 4.2 mL/min/kg and 3.63 mL/min/kg
Systolic volume (Grade IV heart failure; before treatment): 29 (2×) and 30 and 31 and 35 and 25 and 27
